How the values were obtained:
[1] = Ratio of Cmax for test compound to Cmax for Ketamine HCL in Sprague-Dawley rat at 4.64 mg/kg,po administration measured upto 4 hrs; format: ADME, organism-based; settings: in vivo
[2] = Ratio of AUC (0 to 4 hr) for test compound to AUC (0 to 4 hr) for Ketamine HCL in Sprague-Dawley rat at 4.64 mg/kg,po administration measured upto 4 hrs; format: ADME, organism-based; settings: in vivo

SMILES | Ratio [1] | Ratio [2]
CC(C)[C@H](NC(=O)c1ccc[n+](COC(=O)N(C)C2(c3ccccc3Cl)CCCCC2=O)c1)C(=O)O.[Cl-] (some centres not stated) | 223% | 160%
CN(C(=O)OC[n+]1cccc(C(=O)N2CCC[C@H]2C(=O)O)c1)C1(c2ccccc2Cl)CCCCC1=O.[Cl-] (some centres not stated) | 178% | 166%
CN(C(=O)OC[n+]1cccc(C(=O)N[C@@H](CCCCN)C(=O)O)c1)C1(c2ccccc2Cl)CCCCC1=O.Cl.[Cl-] (some centres not stated) | 71.2% | 75.4%
CC[C@H](C)[C@H](NC(=O)c1ccc[n+](COC(=O)N(C)C2(c3ccccc3Cl)CCCCC2=O)c1)C(=O)O.[Cl-] (some centres not stated) | 246% | 223%
CN(CC(=O)O)C(=O)c1ccc[n+](COC(=O)N(C)C2(c3ccccc3Cl)CCCCC2=O)c1.[Cl-] (configuration not stated) | 112% | 93.9%
C[C@H](NC(=O)c1ccc[n+](COC(=O)N(C)C2(c3ccccc3Cl)CCCCC2=O)c1)C(=O)O.[Cl-] (some centres not stated) | 73.7% | 63.2%

Source: ChEMBL document CHEMBL5608226, “Innovative Ketamine Formulations: Enhancing Therapeutic Efficacy and Safety” (ACS Med Chem Lett, 2024)
